Data published in patent US20260007681A1, “INDOLE DERIVATIVES AS ESTROGEN RECEPTOR DEGRADERS” (REGENTS OF THE UNIVERSITY OF MICHIGAN, priority 2022, published 2026).

These molecules were tested against ER (Homo sapiens (Human), UniProt P03372) (assay: Western blot analysis (Compounds B1-B278)). Conditions: ER degradation by traditional Western blot; DC50 classes.
Chain of ER (P03372 whole entry): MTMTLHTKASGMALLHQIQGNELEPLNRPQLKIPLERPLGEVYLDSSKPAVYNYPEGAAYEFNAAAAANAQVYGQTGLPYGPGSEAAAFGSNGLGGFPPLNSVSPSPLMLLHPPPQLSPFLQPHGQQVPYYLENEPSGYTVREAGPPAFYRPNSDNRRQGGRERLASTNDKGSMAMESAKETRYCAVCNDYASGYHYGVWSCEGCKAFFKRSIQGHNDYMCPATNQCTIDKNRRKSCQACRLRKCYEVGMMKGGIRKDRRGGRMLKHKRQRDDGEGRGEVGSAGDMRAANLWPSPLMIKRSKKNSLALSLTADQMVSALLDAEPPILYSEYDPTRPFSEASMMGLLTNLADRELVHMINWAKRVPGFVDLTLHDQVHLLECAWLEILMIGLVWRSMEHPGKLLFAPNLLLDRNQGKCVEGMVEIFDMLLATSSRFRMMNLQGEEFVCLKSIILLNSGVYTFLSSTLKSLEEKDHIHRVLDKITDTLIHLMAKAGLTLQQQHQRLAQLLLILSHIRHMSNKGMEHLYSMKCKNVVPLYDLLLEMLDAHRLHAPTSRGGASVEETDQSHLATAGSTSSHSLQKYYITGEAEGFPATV
Assay type: cell-based
Summary of the method: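 Compound-treated cells were lysed in RIPA buffer (Tris.HCl pH 7.6, 1% NP-40, deoxycholate, 0.1% SDS) with protease inhibitors; equal protein was resolved on 10% SDS-PAGE, transferred to PVDF and immunoblotted. Band intensities were quantified and normalized to GAPDH.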
For `C[C@@H]1Cc2c([nH]c3ccccc23)[C@@H](c2c(F)cc(N3CCC4(CCN(CC(=O)N5Cc6cc7c(cc6C5)C(=O)N(C5CCC(=O)NC5=O)C7=O)CC4)C3)cc2F)N1CC(F)F` (stereo partly drawn) [Compound B47, 6-(2-(2-(4-((1R,3R)-2-(2,2-difluoroethyl)-3-methyl-2,3,4,9-tetrahydro-1H-pyrido[3,4-b]indol-1-yl)-3,5-difluorophenyl)-2,8-diazaspiro[4.5]decan-8-yl)acetyl)-2-(2,6-dioxopiperidin-3-yl)-6,7-dihydropyrrolo[3,4-f]isoindole-1,3(2H,5H)-dione], the “Traditional Western Degradation Potency” value was “A (“A”: <10 nM)”.
In the case of `C[C@@H]1Cc2c([nH]c3ccccc23)[C@@H](c2c(F)cc(N3CCC4(CCN(CC(=O)N5Cc6cc7c(cc6C5)C(=O)N(C5CCC(=O)NC5=O)C7)CC4)C3)cc2F)N1CC(F)F` (stereo partly drawn) [Compound B48, 3-(6-(2-(2-(4-((1R,3R)-2-(2,2-difluoroethyl)-3-methyl-2,3,4,9-tetrahydro-1H-pyrido[3,4-b]indol-1-yl)-3,5-difluorophenyl)-2,8-diazaspiro[4.5]decan-8-yl)acetyl)-1-oxo-3,5,6,7-tetrahydropyrrolo[3,4-f]isoindol-2(1H)-yl)piperidine-2,6-dione], the “Traditional Western Degradation Potency” value is reported as “A (“A”: <10 nM)”.
In the case of `C[C@@H]1Cc2c([nH]c3ccccc23)[C@@H](c2c(F)cc(N3CCC(N4CCC(C(=O)N5Cc6cc7c(cc6C5)C(=O)N(C5CCC(=O)NC5=O)C7=O)CC4)C3)cc2F)N1CC(F)F` (stereo partly drawn) [Compound B50, 6-(1-(1-(4-((1R,3R)-2-(2,2-difluoroethyl)-3-methyl-2,3,4,9-tetrahydro-1H-pyrido[3,4-b]indol-1-yl)-3,5-difluorophenyl)pyrrolidin-3-yl)piperidine-4-carbonyl)-2-(2,6-dioxopiperidin-3-yl)-6,7-dihydropyrrolo[3,4-f]isoindole-1,3(2H,5H)-dione], the “Traditional Western Degradation Potency” value is reported as “C (“C”: >100 nM)”.
In the case of `C[C@@H]1Cc2c([nH]c3ccccc23)[C@@H](c2c(F)cc(N3CCC4(CC3)CN(C(=O)CN3Cc5cc6c(cc5C3)C(=O)N(C3CCC(=O)NC3=O)C6=O)C4)cc2F)N1CC(F)F` (stereo partly drawn) [Compound B51, 6-(2-(7-(4-((1R,3R)-2-(2,2-difluoroethyl)-3-methyl-2,3,4,9-tetrahydro-1H-pyrido[3,4-b]indol-1-yl)-3,5-difluorophenyl)-2,7-diazaspiro[3.5]nonan-2-yl)-2-oxoethyl)-2-(2,6-dioxopiperidin-3-yl)-6,7-dihydropyrrolo[3,4-f]isoindole-1,3(2H,5H)-dione], the “Traditional Western Degradation Potency” value is reported as “A (“A”: <10 nM)”.
In the case of `C[C@@H]1Cc2c([nH]c3ccccc23)[C@@H](c2c(F)cc(N3CCC4(CCN(C(=O)CN5Cc6cc7c(cc6C5)C(=O)N(C5CCC(=O)NC5=O)C7=O)CC4)CC3)cc2F)N1CC(F)F` (stereo partly drawn) [Compound B52, 6-(2-(9-(4-((1R,3R)-2-(2,2-difluoroethyl)-3-methyl-2,3,4,9-tetrahydro-1H-pyrido[3,4-b]indol-1-yl)-3,5-difluorophenyl)-3,9-diazaspiro[5.5]undecan-3-yl)-2-oxoethyl)-2-(2,6-dioxopiperidin-3-yl)-6,7-dihydropyrrolo[3,4-f]isoindole-1,3(2H,5H)-dione], the “Traditional Western Degradation Potency” value is reported as “A (“A”: <10 nM)”.
With `C[C@@H]1Cc2c([nH]c3ccccc23)[C@@H](c2c(F)cc(N3CCC(C(=O)N4CCC(CN5Cc6cc7c(cc6C5)C(=O)N(C5CCC(=O)NC5=O)C7=O)CC4)CC3)cc2F)N1CC(F)F` (stereo partly drawn) [Compound B53, 6-((1-(1-(4-((1R,3R)-2-(2,2-difluoroethyl)-3-methyl-2,3,4,9-tetrahydro-1H-pyrido[3,4-b]indol-1-yl)-3,5-difluorophenyl)piperidine-4-carbonyl)piperidin-4-yl)methyl)-2-(2,6-dioxopiperidin-3-yl)-6,7-dihydropyrrolo[3,4-f]isoindole-1,3(2H,5H)-dione] the “Traditional Western Degradation Potency” value was “B (“B”: 10-100 nM)”.
`C[C@@H]1Cc2c([nH]c3ccccc23)[C@@H](c2c(F)cc(N3CCC(C(=O)N4CCC(N5Cc6cc7c(cc6C5)C(=O)N(C5CCC(=O)NC5=O)C7=O)CC4)CC3)cc2F)N1CC(F)F` (stereo partly drawn) [Compound B54, 6-(1-(1-(4-((1R,3R)-2-(2,2-difluoroethyl)-3-methyl-2,3,4,9-tetrahydro-1H-pyrido[3,4-b]indol-1-yl)-3,5-difluorophenyl)piperidine-4-carbonyl)piperidin-4-yl)-2-(2,6-dioxopiperidin-3-yl)-6,7-dihydropyrrolo[3,4-f]isoindole-1,3(2H,5H)-dione] was tested, and the “Traditional Western Degradation Potency” value was “A (“A”: <10 nM)”.
`C[C@@H]1Cc2c([nH]c3ccccc23)[C@@H](c2c(F)cc(N3CC4(CC(C(=O)N5CCC(CN6Cc7cc8c(cc7C6)C(=O)N(C6CCC(=O)NC6=O)C8=O)CC5)C4)C3)cc2F)N1CC(F)F` (stereo partly drawn) [Compound B55, 6-((1-(2-(4-((1R,3R)-2-(2,2-difluoroethyl)-3-methyl-2,3,4,9-tetrahydro-1H-pyrido[3,4-b]indol-1-yl)-3,5-difluorophenyl)-2-azaspiro[3.3]heptane-6-carbonyl)piperidin-4-yl)methyl)-2-(2,6-dioxopiperidin-3-yl)-6,7-dihydropyrrolo[3,4-f]isoindole-1,3(2H,5H)-dione] was tested, and the “Traditional Western Degradation Potency” value was “A (“A”: <10 nM)”.
For `C[C@@H]1Cc2c([nH]c3ccccc23)[C@@H](c2c(F)cc(N3CC4(CC(C(=O)N5CCC(N6Cc7cc8c(cc7C6)C(=O)N(C6CCC(=O)NC6=O)C8=O)CC5)C4)C3)cc2F)N1CC(F)F` (stereo partly drawn) [Compound B56, 6-(1-(2-(4-((1R,3R)-2-(2,2-difluoroethyl)-3-methyl-2,3,4,9-tetrahydro-1H-pyrido[3,4-b]indol-1-yl)-3,5-difluorophenyl)-2-azaspiro[3.3]heptane-6-carbonyl)piperidin-4-yl)-2-(2,6-dioxopiperidin-3-yl)-6,7-dihydropyrrolo[3,4-f]isoindole-1,3(2H,5H)-dione], the “Traditional Western Degradation Potency” value was “A (“A”: <10 nM)”.
With `C[C@@H]1Cc2c([nH]c3ccccc23)[C@@H](c2c(F)cc(N3CCC(N4CC(CN5Cc6cc7c(cc6C5)C(=O)N(C5CCC(=O)NC5=O)C7=O)C4)CC3)cc2F)N1CC(F)F` (stereo partly drawn) [Compound B57, 6-((1-(1-(4-((1R,3R)-2-(2,2-difluoroethyl)-3-methyl-2,3,4,9-tetrahydro-1H-pyrido[3,4-b]indol-1-yl)-3,5-difluorophenyl)piperidin-4-yl)azetidin-3-yl)methyl)-2-(2,6-dioxopiperidin-3-yl)-6,7-dihydropyrrolo[3,4-f]isoindole-1,3(2H,5H)-dione] the “Traditional Western Degradation Potency” value was “B (“B”: 10-100 nM)”.
With `C[C@@H]1Cc2c([nH]c3ccccc23)[C@@H](c2c(F)cc(N3CCC(N4CCC(CN5Cc6cc7c(cc6C5)C(=O)N(C5CCC(=O)NC5=O)C7=O)CC4)CC3)cc2F)N1CC(F)F` (stereo partly drawn) [Compound B58, 6-((1′-(4-((1R,3R)-2-(2,2-difluoroethyl)-3-methyl-2,3,4,9-tetrahydro-1H-pyrido[3,4-b]indol-1-yl)-3,5-difluorophenyl)-[1,4′-bipiperidin]-4-yl)methyl)-2-(2,6-dioxopiperidin-3-yl)-6,7-dihydropyrrolo[3,4-f]isoindole-1,3(2H,5H)-dione] the “Traditional Western Degradation Potency” value was “C (“C”: >100 nM)”.
For `C[C@@H]1Cc2c([nH]c3ccccc23)[C@@H](c2c(F)cc(N3CCC(N4CC(C(=O)N5Cc6cc7c(cc6C5)C(=O)N(C5CCC(=O)NC5=O)C7=O)C4)CC3)cc2F)N1CC(F)F` (stereo partly drawn) [Compound B59, 6-(1-(1-(4-((1R,3R)-2-(2,2-difluoroethyl)-3-methyl-2,3,4,9-tetrahydro-1H-pyrido[3,4-b]indol-1-yl)-3,5-difluorophenyl)piperidin-4-yl)azetidine-3-carbonyl)-2-(2,6-dioxopiperidin-3-yl)-6,7-dihydropyrrolo[3,4-f]isoindole-1,3(2H,5H)-dione], the “Traditional Western Degradation Potency” value was “C (“C”: >100 nM)”.
For `C[C@@H]1Cc2c([nH]c3ccccc23)[C@@H](c2c(F)cc(N3CCC(N4CC(C(=O)N5Cc6cc7c(cc6C5)C(=O)N(C5CCC(=O)NC5=O)C7)C4)CC3)cc2F)N1CC(F)F` (stereo partly drawn) [Compound B60, 3-(6-(1-(1-(4-((1R,3R)-2-(2,2-difluoroethyl)-3-methyl-2,3,4,9-tetrahydro-1H-pyrido[3,4-b]indol-1-yl)-3,5-difluorophenyl)piperidin-4-yl)azetidine-3-carbonyl)-1-oxo-3,5,6,7-tetrahydropyrrolo[3,4-f]isoindol-2(1H)-yl)piperidine-2,6-dione], the “Traditional Western Degradation Potency” value was “B (“B”: 10-100 nM)”.
In the case of `C[C@@H]1Cc2c([nH]c3ccccc23)[C@@H](c2c(F)cc(N3CC(C(=O)N4CCC(CN5Cc6cc7c(cc6C5)C(=O)N(C5CCC(=O)NC5=O)C7=O)CC4)C3)cc2F)N1CC(F)F` (stereo partly drawn) [Compound B61, 6-((1-(1-(4-((1R,3R)-2-(2,2-difluoroethyl)-3-methyl-2,3,4,9-tetrahydro-1H-pyrido[3,4-b]indol-1-yl)-3,5-difluorophenyl)azetidine-3-carbonyl)piperidin-4-yl)methyl)-2-(2,6-dioxopiperidin-3-yl)-6,7-dihydropyrrolo[3,4-f]isoindole-1,3(2H,5H)-dione], the “Traditional Western Degradation Potency” value is reported as “A (“A”: <10 nM)”.
`C[C@@H]1Cc2c([nH]c3ccccc23)[C@@H](c2c(F)cc(N3CC(C(=O)N4CCC(N5Cc6cc7c(cc6C5)C(=O)N(C5CCC(=O)NC5=O)C7=O)CC4)C3)cc2F)N1CC(F)F` (stereo partly drawn) [Compound B62, 6-(1-(1-(4-((1R,3R)-2-(2,2-difluoroethyl)-3-methyl-2,3,4,9-tetrahydro-1H-pyrido[3,4-b]indol-1-yl)-3,5-difluorophenyl)azetidine-3-carbonyl)piperidin-4-yl)-2-(2,6-dioxopiperidin-3-yl)-6,7-dihydropyrrolo[3,4-f]isoindole-1,3(2H,5H)-dione] was tested, and the “Traditional Western Degradation Potency” value was “A (“A”: <10 nM)”.
In the case of `C[C@@H]1Cc2c([nH]c3ccccc23)[C@@H](c2c(F)cc(N3CCC(CN4CC(N5Cc6cc7c(cc6C5)C(=O)N(C5CCC(=O)NC5=O)C7=O)C4)CC3)cc2F)N1CC(F)F` (stereo partly drawn) [Compound B63, 6-(1-((1-(4-((1R,3R)-2-(2,2-difluoroethyl)-3-methyl-2,3,4,9-tetrahydro-1H-pyrido[3,4-b]indol-1-yl)-3,5-difluorophenyl)piperidin-4-yl)methyl)azetidin-3-yl)-2-(2,6-dioxopiperidin-3-yl)-6,7-dihydropyrrolo[3,4-f]isoindole-1,3(2H,5H)-dione], the “Traditional Western Degradation Potency” value is reported as “B (“B”: 10-100 nM)”.
